From US6479531B1, “Gastrin and cholecystokinin receptor ligands” (James Black Foundation Limited, priority 1998, dated 2002) come the findings set out here.

One test deals with T1, CCKB receptor (Mus musculus, UniProt P56481).
T1 construct: The whole brains from male mice (CD1 22-25 g; Charles River) were removed; from tissue; host or cells: cerebral cortex membranes of male CD1 mice
T1 sequence (P56481 1-453): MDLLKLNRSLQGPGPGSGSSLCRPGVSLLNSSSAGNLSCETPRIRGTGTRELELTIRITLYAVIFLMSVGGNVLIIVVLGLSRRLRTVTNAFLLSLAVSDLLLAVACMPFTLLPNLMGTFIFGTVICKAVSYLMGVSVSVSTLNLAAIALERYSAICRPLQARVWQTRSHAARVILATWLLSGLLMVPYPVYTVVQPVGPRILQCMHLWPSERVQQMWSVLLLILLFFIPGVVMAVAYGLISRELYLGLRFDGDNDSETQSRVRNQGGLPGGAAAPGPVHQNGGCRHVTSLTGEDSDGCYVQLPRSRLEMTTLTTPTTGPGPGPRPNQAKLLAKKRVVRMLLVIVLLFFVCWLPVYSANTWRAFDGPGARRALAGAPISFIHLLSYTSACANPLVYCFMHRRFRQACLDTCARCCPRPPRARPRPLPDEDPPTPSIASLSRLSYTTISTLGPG
Briefly: CCKB receptor radioligand binding assay in mouse cortical membranes. The conditions noted are these: [125I]-CCK8(S) 200 pM, 150 min at 21±3°, read-out: CCKB pKi (converted). The method in brief:
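Bound radioactivity was gamma-counted after rapid GF/B filtration and cold 50 mM Tris-HCl (pH 7.4) washes. The tissue was cerebral cortex from male CD1 mice, prepared as twice-centrifuged membranes in pH 7.2 HEPES/NaCl/KCl/MgCl2/EDTA buffer with bacitracin at 20 mg/ml original wet weight.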

A further test addresses T2, gastrin receptor (Rattus norvegicus, UniProt P30553).
T2 construct: The stomach was excised and flushed with ca. 1 ml of unbuffered physiological saline solution; from tissue; host or cells: isolated whole stomach of immature rats (ca. 21 days old)
T2 sequence (P30553 1-452): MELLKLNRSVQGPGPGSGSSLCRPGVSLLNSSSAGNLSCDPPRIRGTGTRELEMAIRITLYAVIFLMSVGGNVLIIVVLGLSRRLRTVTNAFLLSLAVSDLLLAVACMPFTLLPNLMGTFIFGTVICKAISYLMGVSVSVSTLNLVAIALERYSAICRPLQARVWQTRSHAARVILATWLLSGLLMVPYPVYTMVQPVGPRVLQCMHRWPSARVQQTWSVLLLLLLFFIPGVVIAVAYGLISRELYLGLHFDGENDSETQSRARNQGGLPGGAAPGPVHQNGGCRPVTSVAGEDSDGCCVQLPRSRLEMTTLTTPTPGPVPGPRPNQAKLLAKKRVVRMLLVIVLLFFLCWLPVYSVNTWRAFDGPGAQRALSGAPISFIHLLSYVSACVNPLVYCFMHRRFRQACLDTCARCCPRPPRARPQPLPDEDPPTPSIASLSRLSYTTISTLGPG
Briefly: gastrin antagonist activity in immature rat stomach assay (pentagastrin dose-response, acid secretion). The conditions noted are these: isolated immature rat stomach, cumulative pentagastrin dose-response curves, read-out: Gastrin pKb (converted). The method in brief: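 Gastrin antagonism was measured as the effect on cumulative pentagastrin dose-response curves of acid output, recorded by pH electrode in the perfusate of an excised immature rat stomach (ca. 21 days old). Test compound was placed in the serosal bath (37°, 3×10^−8 M 5-methylfurmethide) 60 min before pentagastrin.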

On to `O=C(O)c1cccc(NC(=O)c2[nH]c(-c3ccccc3)nc2CCC23CC4CC(CC(C4)C2)C3)c1` [Example 47, 3-{[5-(2-Adamantan-1-yl-ethyl)-2-phenyl-1H-imidazole-4-carbonyl]-amino}-benzoic Acid], for which the Ki at CCKB receptor is 251 nM. Also, the Kb at gastrin receptor was 234 nM.

Take `Cc1nc(C(=O)Nc2cccc(C(=O)O)c2)c(CCC23CC4CC(CC(C4)C2)C3)[nH]1` [Example 108, 3-{[5-(2-Adamantan-1-yl-ethyl)-2-methyl-1H-imidazole-4-carbonyl]-amino}-benzoic Acid]: the Ki on CCKB receptor is 2340 nM. The Kb on gastrin receptor was 1550 nM.

As to `Cc1ccccc1-c1nc(C(=O)Nc2cccc(C(=O)O)c2)c(CC2CCCCCC2)[nH]1` [Example 165, 3-[(5-Cycloheptylmethyl-2-o-tolyl-1H-imidazole-4-carbonyl)-amino]-benzoic Acid], the Ki on CCKB receptor was 1820 nM. Also, at gastrin receptor, the Kb was 123 nM.

On to `O=C(O)c1cccc(NC(=O)c2nc(C3CCCCC3)[nH]c2CCCC23CC4CC(CC(C4)C2)C3)c1` [Example 171, 3-{[5-(3-Adamantan-1-yl-propyl)-2-cyclohexyl-1H-imidazole-4-carbonyl]-amino}-benzoic Acid], for which the Ki at CCKB receptor is 141 nM. In addition, the Kb on gastrin receptor is 38.9 nM.

As to `Cc1ccccc1-c1nc(C(=O)Nc2cccc(C(=O)O)c2)c(CCC2CCCCC2)[nH]1` [Example 89, 3-{[5-(2-Cyclohexyl-ethyl)-2-o-tolyl-1H-imidazole-4-carbonyl]-amino}-benzoic Acid], the Ki at CCKB receptor was 676 nM. In addition, the Kb at gastrin receptor is 20 nM.

For the molecule `Cc1cccc(C)c1-c1nc(C(=O)Nc2cccc(C(=O)O)c2)c(CCC23CC4CC(CC(C4)C2)C3)[nH]1` [Example 65, 3-{[5-(2-Adamantan-1-yl-ethyl)-2-(2,6-dimethyl-phenyl)-1H-imidazole-4-carbonyl]-amino}-benzoic Acid], the Ki on CCKB receptor is 56.2 nM. In addition, on gastrin receptor, the Kb was 100 nM.

In the case of `CC12CC3CC(C)(C1)CC(CCc1[nH]c(C4CCCCC4)nc1C(=O)Nc1cccc(C(=O)O)c1)(C3)C2` [Example 174, 3-({2-Cyclohexyl-5-[2-(3,5-dimethyl-adamantan-1-yl)-ethyl]-1H-imidazole-4-carbonyl}-amino)-benzoic Acid], the Ki at CCKB receptor is 251 nM. Further, the Kb at gastrin receptor was 204 nM.

As to `Cc1ccccc1-c1nc(CCC23CC4CC(CC(C4)C2)C3)c(C(=O)Nc2cccc(C(=O)O)c2)n1C` [Example 74, 3-{[5-(2-Adamantan-1-yl-ethyl)-3-methyl-2-o-tolyl-3H-imidazole-4-carbonyl]-amino}-benzoic Acid], the Ki on CCKB receptor is 324 nM. Moreover, the Kb on gastrin receptor was 25.7 nM.

Turning to `Cc1ccccc1-c1nc(NC(=O)Nc2cccc(C(=O)O)c2)c(CCC23CC4CC(CC(C4)C2)C3)[nH]1` [Example 75, 3-{3-[5-(2-Adamantan-1-yl-ethyl)-2-o-tolyl-1H-imidazol-4-yl]-ureido}-benzoic Acid], on CCKB receptor, the Ki was 200 nM. The Kb at gastrin receptor is 263 nM.

For the molecule `O=C(O)c1cccc(NC(=O)c2nc(C3CC4CCC3C4)[nH]c2CCC23CC4CC(CC(C4)C2)C3)c1` (racemic) [Example 115, (±)-exo-3-{[5-(2-Adamantan-1-yl-ethyl)-2-bicyclo[2.2.1]hept-2-yl-1H-imidazole-4-carbonyl]-amino}-benzoic Acid], at CCKB receptor, the Ki was 25.7 nM. The Kb at gastrin receptor is 6.31 nM.

Regarding `Cc1ccc(-c2nc(C(=O)Nc3cccc(C(=O)O)c3)c(CCC34CC5CC(CC(C5)C3)C4)[nH]2)c(C)c1` [Example 67, 3-{[5-(2-Adamantan-1-yl-ethyl)-2-(2,4-dimethyl-phenyl)-1H-imidazole-4-carbonyl]-amino}-benzoic Acid], the Ki at CCKB receptor was 83.2 nM. The Kb on gastrin receptor is 10 nM.

As for `CN1CCC[C@H]1c1nc(C(=O)Nc2cccc(C(=O)O)c2)c(CCC23CC4CC(CC(C4)C2)C3)[nH]1` [Example 137, (S)-3-{[5-(2-Adamantan-1-yl-ethyl)-2-(1-methyl-pyrrolidin-2-yl)-1H-imidazole-4-carbonyl]-amino}-benzoic Acid], the Ki on CCKB receptor was 324 nM. Moreover, at gastrin receptor, the Kb was 5.13 nM.

Take `Cc1ccc(-c2nc(C(=O)Nc3ccc(C)c(C(=O)O)c3)c(CCC34CC5CC(CC(C5)C3)C4)[nH]2)c(C)c1` [Example 151, 5-{[5-(2-Adamantan-1-yl-ethyl)-2-(2,4-dimethyl-phenyl)-1H-imidazole-4-carbonyl]-amino}-2-methyl-benzoic Acid]: the Ki on CCKB receptor was 6.31 nM. Besides, the Kb on gastrin receptor was 21.9 nM.

Turning to `O=C(O)c1cccc(NC(=O)c2nc(C3CC=CCC3)[nH]c2CCC23CC4CC(CC(C4)C2)C3)c1` (stereo not shown) [Example 195, 3-{[5-(2-Adamantan-1-yl-ethyl)-2-cyclohex-3-enyl-1H-imidazole-4-carbonyl]-amino}-benzoic Acid], the Ki on CCKB receptor was 42.7 nM. The Kb at gastrin receptor was 6.61 nM.

As for `O=C(O)c1cc(NC(=O)c2cc(-c3ccc4ccccc4c3)[nH]c2CC2CCCCCC2)cc(C(=O)O)c1` [Example 11, 5-[(2-Cycloheptylmethyl-5-naphthalene-2-yl-1H-pyrrole-3-carbonyl)-amino]-isophthalic Acid], the Ki at CCKB receptor is 87.1 nM. Besides, at gastrin receptor, the Kb is 1620 nM.

On to `Cc1ccc(NC(=O)c2nc(-c3ccc(F)cc3F)[nH]c2CCC23CC4CC(CC(C4)C2)C3)cc1C(=O)O` [Example 152, 5-{[5-(2-Adamantan-1-yl-ethyl)-2-(2,4-difluoro-phenyl)-1H-imidazole-4-carbonyl]-amino}-2-methyl-benzoic Acid], for which, on CCKB receptor, the Ki was 10.5 nM. Also, on gastrin receptor, the Kb was 11.5 nM.

With `Cc1ccc(NC(=O)c2nc(-c3cccc(Cl)c3Cl)[nH]c2CCC23CC4CC(CC(C4)C2)C3)cc1C(=O)O` [Example 150, 5-{[5-(2-Adamantan-1-yl-ethyl)-2-(2,3-dichlorophenyl)-1H-imidazole-4-carbonyl]-amino}-2-methyl-benzoic Acid], the Ki at CCKB receptor is 145 nM. Also, the Kb on gastrin receptor was 646 nM.

Turning to `O=C(O)c1cccc(NC(=O)c2nc(C3CCCO3)[nH]c2CCC23CC4CC(CC(C4)C2)C3)c1` (stereo not shown) [Example 186, 3-{[5-(2-Adamantan-1-yl-ethyl)-2-(tetrahydro-furan-2-yl)-1H-imidazole-4-carbonyl]-amino}-benzoic Acid], the Ki at CCKB receptor is 155 nM. The Kb at gastrin receptor is 11 nM.

Regarding `Cc1ccc(NC(=O)c2nc(-c3ccco3)[nH]c2CCC23CC4CC(CC(C4)C2)C3)cc1C(=O)O` [Example 187, 5-{[5-(2-Adamantan-1-yl-ethyl)-2-furan-2-yl-1H-imidazole-4-carbonyl]-amino}-2-methyl-benzoic Acid], the Ki at CCKB receptor was 60.3 nM. The Kb at gastrin receptor was 75.9 nM.

Regarding `CC1(C)C2CC=C(c3nc(C(=O)Nc4cccc(C(=O)O)c4)c(CCC45CC6CC(CC(C6)C4)C5)[nH]3)C1C2` (stereo not shown) [Example 192, 3-{[5-(2-Adamantan-1-yl-ethyl)-2-(6,6-dimethyl-bicyclo[3.1.1]hept-2-en-2-yl)-1H-imidazole-4-carbonyl]-amino}-benzoic Acid], the Ki on CCKB receptor was 66.1 nM. In addition, on gastrin receptor, the Kb was 141 nM.

Turning to `O=C(O)c1cccc(NC(=O)c2nc(-c3ccccc3F)[nH]c2CCC2CCCCCC2)c1` [Example 43, 3-{[5-(2-Cycloheptyl-ethyl)-2-(2-fluoro-phenyl)-1H-imidazole-4-carbonyl]-amino}-benzoic Acid], the Ki at CCKB receptor was 851 nM. For the same molecule, on gastrin receptor, the Kb was 63.1 nM.

In the case of `Cc1cc(C)c(-c2nc(C(=O)Nc3cccc(C(=O)O)c3)c(CCC34CC5CC(CC(C5)C3)C4)[nH]2)c(C)c1` [Example 154, 3-{[5-(2-Adamantan-1-yl-ethyl)-2-(2,4,6-trimethyl-phenyl)-1H-imidazole-4-carbonyl]-amino}-benzoic Acid], the Ki at CCKB receptor was 24.5 nM. Besides, on gastrin receptor, the Kb is 8.71 nM.

With `Cc1ccc(NC(=O)c2nc(C3CCCO3)[nH]c2CCC23CC4CC(CC(C4)C2)C3)cc1C(=O)O` (stereo not shown) [Example 188, 5-{[5-(2-Adamantan-1-yl-ethyl)-2-(tetrahydro-furan-2-yl)-1H-imidazole-4-carbonyl]-amino}-2-methyl-benzoic Acid], on CCKB receptor, the Ki was 25.7 nM. Besides, at gastrin receptor, the Kb was 7.76 nM.
